Test results as given in patent publication US8552013B2, “Heterocyclic compounds based on N6-substituted adenine, methods of their preparation, their use for preparation of drugs, cosmetic preparations and growth regulators, pharmaceutical preparations, cosmetic preparations and growth regulators containing these compounds” (USTAV Experimentalni Botaniky Akademie Ved Ceske Republiky, priority 2001, dated 2013).

Columns and labels:
Human lymphocytes = test: Immunosuppressive activity, 3H-thymidine incorporation in concanavalin A activated lymphocytes; assay type: cell-based; settings: Lymphocyte, 72 hours, [3H]-TdR, read-out: Human lymphocytes ED50
Description: One of the most important parameters of specific cellular immunity is proliferative response of lymphocytes to antigens or polyclonal mitogens. The majority of normal mammalian peripheral lymphocytes comprise resting cells. Antigens or nonspecific polyclonal mitogens have the capacity to activate lymphoid cells and this is accompanied by dramatic changes of intracellular metabolism (mitochondrial activity, protein synthesis, nucleic acids synthesis, formation of blastic cells and cellular proliferation). […] Variety of in vitro assays was developed to measure proliferative response of lymphocytes. The most commonly used is ^3H-thymidine incorporation method.
During cell proliferation, DNA has to be replicated before the cell is divided into two daughter cells. This close association between cell doublings and DNA synthesis is very attractive for assessing cell proliferation. If labelled DNA precursors are added to the cell culture, cells that are about to divide incorporate the labelled nucleotide into their DNA. Traditionally, those assays usually involve the use of radiolabelled nucleosides, particularly tritiated thymidine ([^3H]-TdR). The amount of [^3H]-TdR incorporated into the cellular DNA is quantified by liquid scintillation counting.
Human heparinized peripheral blood was obtained from healthy volunteers by cubital vein punction. The blood was diluted in PBS (1:3) and mononuclear cells were separated by centrifugation in Ficoll-Hypaque density gradient (Pharmacia, 1.077 g/ml) at 2200 rpm for 30 minutes. Following centrifugation, lymphocytes were washed in PBS and resuspended in cell culture medium (RMPI 1640, 2 mM glutamine, 100 U/ml penicillin, 100 μg/ml streptomycin, 10% fetal calf serum and sodium bicarbonate).
The cells were diluted at target density of 1,100,000 cells/ml were added by pipette (180 μl) into 96/well microtiter plates. Four-fold dilutions of the intended test concentration were added at time zero in 20 μl aliquots to the microtiter plate wells. Usually, test compound was evaluated at six 4-fold dilutions. In routine testing, the highest well concentration was 266.7 μM. All drug concentrations were examined in duplicates. All wells with exception of unstimulated controls were activated with 50 μl of concanavalin A (25 μg/ml). Incubations of cells with test compounds lasted for 72 hours at 37° C., in 5% CO2 atmosphere and 100% humidity. At the end of incubation period, the cells were assayed by using the [^3H]-TdR:
Cell cultures were incubated with 0.5 μCi (20 μl of stock solution 500 μCi/ml) per well for 6 hours at 37° C. and 5% CO2. The automated cell harvester was used to lyse cells in water and adsorb the DNA onto glass-fiber filters in the format of microtiter plate. The DNA incorporated [^3H]-TdR was retained on the filter while unincorporated material passes through. The filters were dried at room temperature overnight, sealed into a sample bag with 10-12 ml of scintillant. The amount of [^3H]-TdR present in each filter (in cpm) was determined by scintillation counting in a Betaplate liquid scintillation counter. The effective dose of immunosuppressant (ED) was calculated using the following equation: ED=(CCPMdrug exposed well/mean CCPMcontrol wells)×100%. The ED50 value, the drug concentration inhibiting proliferation of 50% of lymphocytes, was calculated from the obtained dose response curves.

[1] = test system: Triticum aestivum cv. Hereward leaf tips; test: Retention of chlorophyll in excised wheat leaf tips; assay type: in vivo; settings: chlorophyll retention at the concentration with highest activity
Method in brief: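 Tips of first leaves from 7-day wheat (cv. Hereward) seedlings kept on compound solutions (10^−8 to 10^−4 M, from DMSO stock) for 96 h in the dark at 25 °C. Chlorophyll extracted in 80% ethanol at 80 °C and read at 665 nm. Activity at the best concentration expressed relative to 10^−4 M BAP (100%), five replicates.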

B16-F0 melanoma = test: Calcein AM cytotoxicity, B16-F0; assay type: cell-based; settings: Mus musculus, B16F0, 72 h, read-out: IC 50, B16-F0
Description: (§1) One of the parameters used, as the basis for cytotoxicity assays, is the metabolic activity of viable cells. For example, a microtiter assay, which uses the Calcein AM, is now widely used to quantitate cell proliferation and cytotoxicity. For instance, this assay is used in drug screening programs and in chemosensitivity testing. Because only metabolically active cells cleave Calcein AM, these assays detect viable cells exclusively. The quantity of reduced Calcein AM corresponds to the number of vital cells in the culture.
(§2) Human T-lymphoblastic leukemia cell line CEM; promyelocytic HL-60 and monocytic U937 leukemias; breast carcinoma cell lines MCF-7, BT549, MDA-MB-231; glioblastoma U87MG cells; cervical carcinoma cells HELA; sarcoma cells U2OS and Saos2; hepatocellular carcinoma HepG2; mouse fibroblasts NIH3T3; mouse immortalized bone marrow macrophages B2.4 and B10A.4; P388D1 and L1210 leukemia; B16 and B16F10 melanomas were used for routine screening of compounds. The cells were maintained in Nunc/Corning 80 cm^2 plastic tissue culture flasks and cultured in cell culture medium (DMEM with 5 g/l glucose, 2 mM glutamine, 100 U/ml penicillin, 100 μg/ml streptomycin, 10% fetal calf serum and sodium bicarbonate).
(§3) The cell suspensions that were prepared and diluted according to the particular cell type and the expected target cell density (2.500-30.000 cells per well based on cell growth characteristics) were added by pipette (80 μl) into 96/well microtiter plates. Inoculates were allowed a pre-incubation period of 24 hours at 37° C. and 5% CO2 for stabilisation. Four-fold dilutions of the intended test concentration were added at time zero in 20 μl aliquots to the microtiter plate wells. Usually, test compound was evaluated at six 4-fold dilutions. In routine testing, the highest well concentration was 266.7 μM, but it can be the matter of change dependent on the agent. All drug concentrations were examined in duplicates. Incubations of cells with the test compounds lasted for 72 hours at 37° C., in 5% CO2 atmosphere and 100% humidity. At the end of incubation period, the cells were assayed by using the Calcein AM. Ten microliters of the stock solution were pipetted into each well and incubated further for 1 hours. Fluorescence (FD) was measured with the Labsystem FIA Reader Fluoroscan Ascent (UK). The tumour cell survival (GI50) was calculated using the following equitation: TCS═(FDdrug exposed well/mean FDcontrol wells)×100%. The GI50 value, the drug concentration lethal to 50% of the tumour cells, was calculated from the obtained dose response curves (FIG. 1).

[2] = test system: promyelocytic HL-60 leukemia; test: Calcein AM cytotoxicity, HL60; assay type: cell-based, human; settings: Homo sapiens, HL-60, 72 h, read-out: IC 50, HL60
Description: as §1
(§4) The cells were maintained in Nunc/Corning 80 cm^2 plastic tissue culture flasks and cultured in cell culture medium (DMEM with 5 g/l glucose, 2 mM glutamine, 100 U/ml penicillin, 100 μg/ml streptomycin, 10% fetal calf serum and sodium bicarbonate).
as §3, with “In routine testing, the highest well concentration was 266.7 μM, but it can be the matter of change dependent on the agent.” left out, “(UK).” for “(UK). The tumour cell survival (GI50) was calculated using the following equitation: TCS═(FDdrug exposed well/mean FDcontrol wells)×100%. The GI50 value, the drug concentration lethal to 50% of the tumour cells, was calculated from the obtained dose response curves (FIG. 1).”

[3] = test system: T-lymphoblastic leukemia cell line CEM; test: Calcein AM cytotoxicity, CEM; assay type: cell-based, human
Description: as §1, §4
as §3, with “In routine testing, the highest well concentration was 266.7 μM, but it can be the matter of change dependent on the agent.” left out, “(UK).” for “(UK). The tumour cell survival (GI50) was calculated using the following equitation: TCS═(FDdrug exposed well/mean FDcontrol wells)×100%. The GI50 value, the drug concentration lethal to 50% of the tumour cells, was calculated from the obtained dose response curves (FIG. 1).”

[4] = test system: Amaranthus caudatus cotyledon/hypocotyl explants; test: Amaranthus bioassay, betacyanin content; assay type: in vivo; settings: betacyanin content at the concentration with highest activity
[5] = test system: tobacco callus Nicotiana tabacum L. cv. Wisconsin 38; test: Cytokinin-dependent tobacco callus growth; assay type: cell-based; settings: fresh callus weight at the concentration with highest activity
K-562 = test: Calcein AM cytotoxicity, K-562; assay type: cell-based; settings: Homo sapiens, K562, 72 h, read-out: IC 50, K-562
Description: as §1, §4
as §3, with “In routine testing, the highest well concentration was 266.7 μM, but it can be the matter of change dependent on the agent.” left out, “(UK).” for “(UK). The tumour cell survival (GI50) was calculated using the following equitation: TCS═(FDdrug exposed well/mean FDcontrol wells)×100%. The GI50 value, the drug concentration lethal to 50% of the tumour cells, was calculated from the obtained dose response curves (FIG. 1).”

[6] = test system: breast carcinoma cell line MCF-7; test: Calcein AM cytotoxicity, MCF7; assay type: cell-based, human; settings: Homo sapiens, MCF7, 72 h, read-out: IC 50, MCF7
Description: as §1, §4
as §3, with “In routine testing, the highest well concentration was 266.7 μM, but it can be the matter of change dependent on the agent.” left out, “(UK).” for “(UK). The tumour cell survival (GI50) was calculated using the following equitation: TCS═(FDdrug exposed well/mean FDcontrol wells)×100%. The GI50 value, the drug concentration lethal to 50% of the tumour cells, was calculated from the obtained dose response curves (FIG. 1).”

[7] = test system: human diploid fibroblasts (HCA cells); test: Senescence, beta-galactosidase staining of human diploid fibroblasts; assay type: cell-based
Description: In this example, human diploid fibroblasts (HCA cells of various passage levels: passage 25—designated HCA25; passage 45—designated HCA45; passage 80—designated HCA80) were stained for β-galactosidase activity. The medium used for cell cultivation was removed, the cells were washed twice in […], and fixed in 2-3 ml of fixing solution comprised of a 2% formaldehyde and 0.2% glutaraldehyde in PBS. The cells were incubated at room temperature for 5 minutes, then washed twice with PBS. The cells were subsequently incubated at 37° C. (without CO2) for 1 to 16 hours in 2-3 ml of a solution comprising potassium ferricyanide (5 mM), potassium ferrocyanide (5 mM), MgCl2 (2 mM), X-gal (5-bromo-4-chloro-3-indolyl-β-D-galactopyranoside) (1 mg/ml), in citric/phosphate buffer, pH 6.0). […] In this experiment, senescent cells, but not other cells were stained blue due to the action of β-galactosidase on the substrate (FIG. 4).

HOS = test: Calcein AM cytotoxicity, HOS; assay type: cell-based; settings: Homo sapiens, HOS, 72 h
Description: as §1, §2, §3

| Structure (SMILES) | EC50 (Human lymphocytes) [µM] | Activity (%) [10^−4 mol · l^−1 BAP = 100%] [1] | IC50 (B16-F0 melanoma) [µM] | IC50 [2] [µM] | IC50 ([3]; 72 hours, listed as 2,4,6triMeO BAP) [µM] | IC50 ([3]; Homo sapiens, 72 h) [µM] | activity (%) [10^−5 mol · l^−1 BAP = 100%] [4] | Activity (%) [10^−4 mol · l^−1 BAP = 100%] [5] | IC50 (K-562) [µM] | IC50 [6] [µM] | SENESCENT CELLS (%) HCA25 ([7]; passage 25) [%] | SENESCENT CELLS (%) HCA45 ([7]; passage 45) [%] | SENESCENT CELLS (%) HCA80 ([7]; passage 80) [%] | IC50 ([3]; 72 hours, listed as 3Cl4F BAP) [µM] | IC50 (HOS) [µM] |
| --- | --- | --- | --- | --- | --- | --- | --- | --- | --- | --- | --- | --- | --- | --- | --- |
| COc1ccc(CNc2ncnc3nc[nH]c23)c(O)c1 [2-hydroxy-4-methoxybenzylamino, 6-(2-hydroxy-4-methoxybenzylamino)purine] | 1.8 | – | – | – | – | – | – | – | – | – | – | – | – | – | – |
| COc1cc(OC)c(CNc2ncnc3nc[nH]c23)c(OC)c1 [6-(2,4,6-trimethoxybenzylamino)purine] | – | 6 (±4) % | > 167 | 153 | 105 | 63.6 | 3 (±3) % | 13 (±6) % | > 167 | > 167 | – | – | – | – | – |
| Oc1ccc(CNc2ncnc3nc[nH]c23)cc1O [6-(3,4-dihydroxybenzylamino)purine] | – | – | > 167 | > 167 | – | > 167 | 8 (±3) % | 4 (±1) % | > 167 | > 167 | 5 | 4 | 29 | – | – |
| Fc1ccc(CNc2ncnc3nc[nH]c23)cc1Cl [6-(3-chloro-4-fluorobenzylamino)purine] | – | 141 (±20) % | > 167 | > 167 | – | 135 | 91 (±7) % | 90 (±1) % | > 167 | > 167 | – | – | – | 95.8 | – |
| COc1ccc(CNc2ncnc3nc[nH]c23)cc1O [6-(3-hydroxy-4-methoxybenzylamino)purine] | – | – | > 167 | > 167 | – | > 167 | 24 (±1) % | – | > 167 | > 167 | – | – | – | – | – |
| Cc1cccc(CNc2ncnc3nc[nH]c23)c1 [6-(3-methylbenzylamino)purine] | – | 111 (±16) % | 164 | > 167 | – | > 167 | 84 (±14) % | 79 (±5) % | > 167 | 102 | – | – | – | – | – |
| COc1cc(CNc2ncnc3nc[nH]c23)ccc1O [6-(4-hydroxy-3-methoxybenzylamino)purine] | – | – | > 167 | > 167 | – | > 167 | 10 (±2) % | – | > 167 | > 167 | – | – | – | – | – |
| COc1ccc(CNc2ncnc3nc[nH]c23)cc1 [6-(4-methoxybenzylamino)purine] | – | 79 (±6) % | 84.7 | – | – | – | 23 (±2) % | 39 (±17) % | – | – | – | – | – | – | > 167 |
| O=[N+]([O-])c1ccc(CNc2ncnc3nc[nH]c23)cc1 [6-(4-nitrobenzylamino)purine] | – | 83 (±8) % | > 167 | > 167 | – | > 167 | 25 (±2) % | – | > 167 | > 167 | – | – | – | – | – |
